{
  "source": "patent US20080311589A1",
  "about": "“METHOD OF HIGH-THROUGHPUT SCREENING OF MOLECULES AND COMPOUNDS FOR THEIR EFFECTS ON BIOLOGICAL AND CHEMICAL PROCESSES” (priority 1999, published 2008)",
  "key": {"[1]": {"tested_on": "A549 human lung carcinoma cells", "experiment": "phosphonucleolin cytoblot, suppressors of G2-arresting agents", "type": "cell-based", "conditions": "for prevention of nocodazole mitotic arrest: simultaneous addition with 250 nM nocodazole, 14 μM ICRF-193, 20 μM roscovitine", "protocol": "(§1) FIG. 11. Cytoblots can be used to screen for small molecule suppressors of anti-proliferative agents using the presence of phosphonucleolin, and for small molecules that induce exit from mitosis using the absence of phosphonucleolin. […] A549 human lung carcinoma cells were seeded at a density of 4000 cells in 40 μL of DMEM+ in each well of an opaque 384-well plate and incubated for 24 hours at 37° C. with 5% CO2. […] Cells were then incubated for 18 hours at 37° C. with 5% CO2 and a phosphonucleolin cytoblot was performed. (c) HeLaS3 cells were seeded at a density of 4000 cells in 40 μL of DMEM+ in each well of an opaque 384-well plate and incubated for 24 hours at 37° C. with 5% CO2. Cells were either left untreated or treated with 554 nM nocodazole for 14 hours to arrest cells in mitosis. Roscovitine was then added to the final concentrations indicated in a final volume of 50 μL and cells were incubated for 4 hours at 37° C. with 5% CO2. Finally, BrdU was added to a final concentration of 10 μM to those wells that were assayed for BrdU incorporation, and the cells incubated for an additional 6 hours at 37° C. with 5% CO2. BrdU and phosphonucleolin cytoblots were performed. […] HeLa cells were seeded at a density of 4000 cells per well in 40 μL of DMEM+ in each well of an opaque 384 well plate and incubated overnight at 37° C. with 5% CO2. Cells were then treated with either an equivalent amount of DMSO or nocodazole to a final concentration of 415 nM and the cells incubated for an additional 14 hours at 37° C. with 5% CO2. Roscovitine was then added to the final concentrations indicated and final volume of 50 μL and cells incubated for 4 hours 37° C. with 5% CO2. Finally, BrdU was added to a final concentration of 10 μM to those wells the be assayed for BrdU incorporation and the cells incubated for an additional 6 hours at 37° C. with 5% CO2. BrdU and TG-3 cytoblots were performed (see Protocols). Wells are shown magnified 4×. […] A549 human lung carcinoma cells were seeded at a density of 4000 cells in 40 uL of DMEM+ in each well of an opaque 384 well plate and incubated for 24 hours at 37° C. with 5% CO2. […] Cells were then incubated for 18 hours at 37° C. with 5% CO2 and a TG-3 cytoblot performed (see Protocol).\nThese purine analogs are known to be non-specific competitive inhibitors of 5′-adenosine triphosphate binding and therefore are likely to inhibit a wide range of kinases in the cell."}, "[2]": {"tested_on": "HeLaS3 cells", "experiment": "BrdU and phosphonucleolin cytoblots in nocodazole-arrested HeLa cells", "type": "cell-based, human", "protocol": "as §1\nIt should also be possible to find small molecules that induce exit from mitosis, resulting in a reduction in phosphonucleolin levels. As the nocodazole-induced arrest of cells in mitosis requires cyclin-dependent kinase (CDK) activity for the activation of the spindle assembly checkpoint, inhibition of CDK activity should suppress nocodazole-induced mitotic arrest (FIG. 11a). […]"}, "[3]": {"tested_on": "Mv1Lu mink lung epithelial cells", "experiment": "384 well anti-BrdU cytoblot", "type": "cell-based", "conditions": "384-well plate; antiproliferative agents 24 hours, then 10 μM BrdU 16 hours (FIG. 2)", "text": "FIG. 1. An immunodetection assay for DNA synthesis in high density arrays of mammalian cells. (a) Cartoon depiction of an anti-BrdU cytoblot. The thymine analog 5-bromodeoxyuridine (BrdU) is incorporated into the DNA of cells that are actively replicating their DNA. The cells are in the well, and BrdU is detected with a two step antibody binding procedure. The second antibody is conjugated to the enzyme horseradish peroxidase. In the presence of the chemiluminescent substrate luminol as well as hydrogen peroxide, light of wavelength 428 nm is generated. The light emission can be detected by exposing the plate to film. (b) A cytoblot can detect TGF-β's ability to prevent BrdU incorporation in mink lung epithelial cells. 2000 Mv1Lu mink lung epithelial cells were seeded in each well of a white, opaque 384 well plate. The cells were seeded in the indicated concentrations of TGF-β in 50 μL of DMEM with 1% fetal bovine serum (FBS), 100 units/mL penicillin G sodium, 100 μg/mL streptomycin sulfate and 100 μM each of the amino acids alanine, aspartic acid, glutamine, glycine, asparagine and proline (referred to throughout as 1% mink medium) and allowed to incubate at 37° C. with 5% CO2. After 16 hours, 5.5 μL of 100 μM BrdU in 1% mink medium was added to each well, for a final concentration of 10 μM BrdU. The cells were incubated at 37° C. with 5% CO2 for an additional 16 hours and then an anti-BrdU cytoblot protocol was performed (see protocol). Wells shown are magnified 4×.\nFIG. 2. A cytoblot can detect the ability of numerous antiproliferative agents to inhibit BrdU incorporation. 2000 Mv1Lu mink lung epithelial cells were seeded in each well of a white, opaque 384 well plate. The cells were seeded in 40 μL of 1% mink media and immediately 40 μL of 2× stocks of the reagents shown was added to each well and the cells were allowed to incubate at 37° C. with 5% CO2. After 24 hours, 9 μL of 100 μM BrdU in 1% mink medium was added to each well, for a final concentration of 10 μM BrdU. The cells were incubated at 37° C. with 5% CO2 for an additional 16 hours and then an anti-BrdU cytoblot protocol was performed (see protocol). Wells shown are magnified 2.5×.\nThe ability of the cytoblot assay to detect changes in DNA synthesis was tested by measuring the incorporation of 5-bromodeoxyuridine (BrdU, Sigma Corporation, St. Louis, Mo., Cat.# B9285) into DNA in the presence or absence of the anti-mitogen transforming growth factor β (TGF-β). Mink lung cells, which are responsive to TGF-β, were seeded into each well of an opaque, white 384-well plate. The cells were subsequently treated with varying concentrations of TGF-β for 16 hours and then with 10 μM BrdU for 16 hours. […] The following protocols provide experimental detail. […]"}, "[4]": {"tested_on": "hyperacetylated histone H4", "experiment": "384 well anti-acetylated histone H4 cytoblot", "type": "cell-based, human", "conditions": "A549 cells; 300 nM trichostatin A, 100 nM trapoxin, 24 hours", "protocol": "FIG. 5. An immunodetection assay for the accumulation of hyperacetylated histone H4 in high density arrays of mammalian cells. A549 human lung carcinoma cells were seeded at a density of 4000 cells in 40 μL of DMEM+ in each well of an opaque 384 well plate and incubated overnight at 37° C. with 5% CO2. Cells were either untreated, washed once and treated with 0.5% serum, 80 pM TGF-β, 300 nM trichostatin A, 100 nM trapoxin or 250 nM nocodazole and incubated for 24 hours at 37° C. with 5% CO2 in a final volume of 50 μL. A cytoblot was performed (see Protocol) and the presence of the hyperacetylated form of histone H4 was detected using a two step antibody binding procedure using an anti-acetylated H4 antibody and a secondary antibody conjugated to the enzyme horseradish peroxidase. Wells are shown magnified 25×.\nAny post-translational modification that can be recognized by an antibody (or ligand) may be used in a cytoblot screen. […] In addition, antibodies against the phosphorylated form of nucleolin (FIG. 6a) or histone H3 (FIG. 6b) were used to detect the presence of phosphonucleolin or phosphohistone H3 respectively, both of which server as biochemical markers of the mitotic state of cells (Anderson et al. Experimental Cell Research 238: 498-502 1998; Vincent et al. J. Cell. Biol. 132:413-425. 1996)). The following protocol provides experimental detail. […]"}, "[5]": {"tested_on": "mink lung epithelial cells", "experiment": "BrdU cytoblot assay for S-phase progression", "type": "cell-based", "text": "BRDU CYTOBLOT ASSAY: The BrdU cytoblot assay for S-phase progression was described previously by Stockwell et al. (Chem. Biol. 6:71, 1999; see also, U.S. Patent Application Ser. No. 60/094,305, incorporated herein by reference).\nCompounds that mimic TGFβ activity would be expected to be capable of inducing cell cycle arrest or apoptosis, and in particular to block DNA replication, in responding cells. We therefore used an S-phase progression cytoblot assay to test whether our compounds could inhibit 5-bromodeoxyuridine (BrdU) incorporation into mink epithelial cells. […] Both compounds were therefore classified as true TGFβ mimics."}},
  "note": "“Also recorded” adds a separate entry of the source.",
  "data": [
    {"compound": "Nc1ncc2[nH]cnc2n1", "note": "[2-aminopurine]", "values": [
      {"measurement": "suppression of ICRF-193-induced G2 arrest", "setting": "[1]; 1 mM 2-aminopurine or 2 mM caffeine with ICRF-193 and 250 nM nocodazole, 18 hours", "result": "prevented the arrest in response to ICRF-193; also recorded: suppress a DNA damage-independent topoisomerase inhibitor-induced G2-checkpoint arrest"}
    ]},
    {"compound": "ICRF-193", "values": [
      {"measurement": "prevention of nocodazole mitotic arrest", "setting": "[1]", "result": "prevented this mitotic arrest"}
    ]},
    {"compound": "COC(=O)Nc1nc2ccc(C(=O)c3cccs3)cc2[nH]1", "note": "[nocodazole]", "values": [
      {"measurement": "mitotic arrest (phosphonucleolin)", "setting": "[1]; 250 nM nocodazole, 18 hours", "result": "arrested in mitosis"},
      {"measurement": "accumulation of phosphonucleolin", "setting": "[2]; HeLa cells, nocodazole 415 nM", "result": "induces the accumulation of phosphonucleolin"},
      {"measurement": "incorporation of BrdU", "setting": "[2]; HeLa cells, nocodazole 415 nM", "result": "prevents the incorporation of BrdU"},
      {"measurement": "BrdU incorporation", "setting": "[3]", "result": "effectively prevent BrdU incorporation"}
    ]},
    {"compound": "NC(=O)NO", "note": "[hydroxyurea]", "values": [
      {"measurement": "BrdU incorporation", "setting": "[3]", "result": "effectively prevent BrdU incorporation"}
    ]},
    {"compound": "CC(/C=C/C(=O)NO)=C\\[C@@H](C)C(=O)c1ccc(N(C)C)cc1", "note": "[trichostatin, trichostatin A]", "values": [
      {"measurement": "acetylation of histone H4", "setting": "[4]", "result": "increase in the acetylation of histone H4"}
    ]},
    {"compound": "CC[C@H](CO)Nc1nc(NCc2ccccc2)c2ncn(C(C)C)c2n1", "note": "[roscovitine]", "values": [
      {"measurement": "prevention of nocodazole mitotic arrest", "setting": "[1]", "result": "prevented this mitotic arrest"},
      {"measurement": "exit from nocodazole-induced arrest (disappearance of phosphonucleolin)", "setting": "[2]; nocodazole 14 hours, then roscovitine", "result": "cells exited from the nocodazole-induced arrest; also recorded: suppresses only the accumulation of phosphonucleolin"},
      {"measurement": "BrdU incorporation after roscovitine", "setting": "[2]; nocodazole 14 hours, then roscovitine, 10 μM BrdU 6 hours", "result": "did not begin to incorporate BrdU"}
    ]},
    {"compound": "CuCl2 [Cu^2+]", "values": [
      {"measurement": "BrdU incorporation", "setting": "[5]", "result": "inhibition of BrdU incorporation"}
    ]}
  ]
}
